The subject of this assay is P388 leukemia ip, CD2F1 mice, survival T/C. Briefly: NCI In Vivo Anticancer Drug Screen. Data for tumor model P388 Leukemia (intraperitoneal) in CD2F1 (CDF1) mice. To be noted: endpoint: median survival time, higher = longer survival. The procedure, abridged:
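Mice carrying the transplanted tumor received test compound or vehicle. Survival was recorded in each group, and the value is the treated-group measurement divided by that of the vehicle-treated control group.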

Where [1] appears, read: dose: 100.0 mg/kg/injection, schedule: Q01DX009 (ip), vehicle: saline with Tween-80.
Where [2] appears, read: dose: 100.0 mg/kg/injection, schedule: Q04DX002 (ip), vehicle: Klucel (hydroxypropylcellulose) (HPC).
[3] abbreviates: dose: 200.0 mg/kg/injection, schedule: Q04DX002 (ip), vehicle: Klucel (hydroxypropylcellulose) (HPC).
[4] abbreviates: dose: 100.0 mg/kg/injection, schedule: Q04DX002 (ip), vehicle: saline with Tween-80.
The mark [5] stands for this setting: dose: 200.0 mg/kg/injection, schedule: Q04DX002 (ip), vehicle: saline with Tween-80.
[6] abbreviates: dose: 400.0 mg/kg/injection, schedule: Q04DX002 (ip), vehicle: saline with Tween-80.
Where [7] appears, read: dose: 100.0 mg/kg/injection, schedule: Q01DX009 (ip), vehicle: saline.
[8] abbreviates: dose: 50.0 mg/kg/injection, schedule: Q01DX009 (ip), vehicle: Klucel (hydroxypropylcellulose) (HPC).
Setting [9] is: dose: 100.0 mg/kg/injection, schedule: Q01DX009 (ip), vehicle: Klucel (hydroxypropylcellulose) (HPC).
[10] abbreviates: dose: 200.0 mg/kg/injection, schedule: Q01DX009 (ip), vehicle: Klucel (hydroxypropylcellulose) (HPC).
[11] abbreviates: dose: 50.0 mg/kg/injection, schedule: Q01DX005 (ip), vehicle: Klucel (hydroxypropylcellulose) (HPC).
The mark [12] stands for this setting: dose: 100.0 mg/kg/injection, schedule: Q01DX005 (ip), vehicle: Klucel (hydroxypropylcellulose) (HPC).
Setting [13] is: dose: 200.0 mg/kg/injection, schedule: Q01DX005 (ip), vehicle: Klucel (hydroxypropylcellulose) (HPC).
The mark [14] stands for this setting: dose: 50.0 mg/kg/injection, schedule: Q01DX009 (ip), vehicle: saline.

Experimental findings from PubChem BioAssay AID330 (DTP/NCI, 2004) are described below.

Where “and” joins values, the source holds several entries; their conditions need not be identical. Equal values may be shown once. Inconclusive results and toxic doses are left out. Bridge positions count the residues as written; N and C are the ends. Square brackets hold non-standard residues; d marks the D form. Peptide text beside a SMILES is read from it. * marks the point of attachment. Cya = N[CH](CS(=O)(=O)O)C(=O)O; X6 = CC(C)CCCCCCCC(O)CC(=O)*; Cbz = O=C(OCc1ccccc1)*; Nva = CCC[CH](N)C(=O)O; GABA = NCCCC(=O)O

Turning to `C[n+]1ccc(CC(Cc2cc[n+](C)cc2)c2ccc(Br)cc2)cc1`, the T/C was 110 % of control (dose: 6.25 mg/kg/injection, schedule: Q01DX009 (ip), vehicle: Klucel (hydroxypropylcellulose) (HPC)); 110 % of control (dose: 12.5 mg/kg/injection, schedule: Q01DX009 (ip), vehicle: Klucel (hydroxypropylcellulose) (HPC)); 108 % of control (dose: 25.0 mg/kg/injection, schedule: Q01DX009 (ip), vehicle: Klucel (hydroxypropylcellulose) (HPC)).
With `O=C(OC(c1ccccc1)(C(F)(F)F)C(F)(F)F)c1ccccc1Sc1ccccc1`, the T/C is 95 % of control under setting [1]; 90 % of control (dose: 200.0 mg/kg/injection, schedule: Q01DX009 (ip), vehicle: saline with Tween-80); 95 % of control (dose: 400.0 mg/kg/injection, schedule: Q01DX009 (ip), vehicle: saline with Tween-80).
As for `CCOC(=O)CN(C)C(c1ccccc1)c1cccs1` (stereo unspecified), the T/C by setting is: under setting [2], 102 % of control; under setting [3], 105 % of control.
For the molecule `O=c1[nH]c2cc(Cl)ccc2nc1/C=C(\O)c1ccc(F)cc1`, the T/C reads like this: (dose: 60.0 mg/kg/injection, schedule: Q01DX005 (ip), vehicle: saline with Tween-80) 89 % of control; (dose: 120.0 mg/kg/injection, schedule: Q01DX005 (ip), vehicle: saline with Tween-80) 87 % of control; (dose: 240.0 mg/kg/injection, schedule: Q01DX005 (ip), vehicle: saline with Tween-80) 102 % of control.
With `CCOC(=O)c1sc(SSc2sc(C(=O)OCC)c(-c3ccccc3)c2[N+](=O)[O-])c([N+](=O)[O-])c1-c1ccccc1`, the T/C under setting [4] was 104 % of control, the T/C under setting [5] is 107 % of control and the T/C under setting [6] was 118 % of control.
Regarding `CCOP(=O)(CCCCN1C(=O)c2ccccc2C1=O)OCC`, the T/C was 100 % of control under setting [7]; 100 % of control (dose: 200.0 mg/kg/injection, schedule: Q01DX009 (ip), vehicle: saline); 100 % of control (dose: 400.0 mg/kg/injection, schedule: Q01DX009 (ip), vehicle: saline).
As to `O=c1c2ccccc2nc2n1CCC/C2=C\c1ccc(Cl)cc1`, the T/C is 97 % of control (dose: 92.5 mg/kg/injection, schedule: Q04DX002 (ip), vehicle: Klucel (hydroxypropylcellulose) (HPC)); 105 % of control (dose: 185.0 mg/kg/injection, schedule: Q04DX002 (ip), vehicle: Klucel (hydroxypropylcellulose) (HPC)); 97 % of control (dose: 370.0 mg/kg/injection, schedule: Q04DX002 (ip), vehicle: Klucel (hydroxypropylcellulose) (HPC)).
With `CCCCOP(O)(=S)OCCCC.[Yb]`, the T/C under setting [4] was 96 % of control, the T/C under setting [5] was 101 % of control and the T/C under setting [6] was 99 % of control.
As for `COc1ccccc1C1C(C#N)C(=O)NC(=O)C1C#N` (stereo unspecified), the T/C is 113 % of control under setting [8], 105 % of control under setting [9] and 105 % of control under setting [10].
With `Nc1nc(=S)c2[nH]c(=S)n(C3OC(CO)C(O)C3O)c2[nH]1` (stereo unspecified), the T/C is 100 % of control (dose: 25.0 mg/kg/injection, schedule: Q01DX005 (ip), vehicle: Klucel (hydroxypropylcellulose) (HPC)); 105 % of control under setting [11]; 103 % of control under setting [12]; 112 % of control under setting [13].
As to `NC(N)=NCCCC(N)C(=O)CC(Cc1ccc(O)cc1)C(=O)O` (stereo unspecified), the T/C runs as follows: (dose: 7.5 mg/kg/injection, schedule: Q01DX005 (ip), vehicle: water) 98 % of control; (dose: 15.0 mg/kg/injection, schedule: Q01DX005 (ip), vehicle: water) 98 % of control; (dose: 30.0 mg/kg/injection, schedule: Q01DX005 (ip), vehicle: water) 95 % of control; (dose: 60.0 mg/kg/injection, schedule: Q01DX005 (ip), vehicle: water) 98 % of control.
Turning to `CC(C)CCCCCCCC(O)CC(=O)NC(CS(=O)(=O)O)C(=O)NC(CC(C)C)C(=O)NCCCC(=O)NC(Cc1cnc[nH]1)C(=O)NC(C)C(=O)NC1C(=O)NC(C(C)O)C(=O)NC(Cc2cnc[nH]2)C(=O)NC(C)C(=O)NC(C(C)O)C(=O)OC1C` (stereo unspecified) (X6-[Cya]L[GABA]HATTHAT; ester 6-C; configuration not given here), the T/C reads like this: (dose: 0.38 mg/kg/injection, schedule: Q01DX005 (ip), vehicle: other) 95 % of control; (dose: 0.75 mg/kg/injection, schedule: Q01DX005 (ip), vehicle: other) 102 % of control; (dose: 1.5 mg/kg/injection, schedule: Q01DX005 (ip), vehicle: other) 100 % of control; (dose: 3.0 mg/kg/injection, schedule: Q01DX005 (ip), vehicle: other) 100 % of control; (dose: 6.0 mg/kg/injection, schedule: Q01DX005 (ip), vehicle: other) 99 % of control.
In the case of `O=S(=O)(CCl)OCCCl`, the T/C was 120 % of control (dose: 25.0 mg/kg/injection, schedule: Q01DX009 (ip), vehicle: saline with Tween-80); 170 % of control (dose: 75.0 mg/kg/injection, schedule: Q01DX009 (ip), vehicle: saline with Tween-80); 218 % of control under setting [1].
Regarding `CCCC(NC(=O)OCc1ccccc1)C(=O)NC(CC(C)C)C(N)=O` (stereo unspecified) (Cbz-[Nva]-Leu-NH2; configuration not given here), the T/C by setting is: under setting [11], 112 % of control; under setting [12], 100 % of control; under setting [13], 100 % of control.
With `Cn1c(=O)oc2cc([N+](=O)[O-])c(Cl)cc21`, the T/C by setting is: under setting [11], 95 % of control; under setting [12], 92 % of control.
For the molecule `CC(=O)Oc1ccc2c(c1)C(=O)CCCCC(=O)O2`, the T/C under setting [2] is 106 % of control; the T/C under setting [3] was 116 % of control; the T/C (dose: 400.0 mg/kg/injection, schedule: Q04DX002 (ip), vehicle: Klucel (hydroxypropylcellulose) (HPC)) is 106 % of control.
For the molecule `COc1ccc(OC/C(C)=N\NS(=O)(=O)c2cc(Cl)c(Cl)cc2Cl)cc1`, the T/C by setting is: (dose: 100.0 mg/kg/injection, schedule: Q01DX001 (ip), vehicle: gum acacia) 96 % of control; (dose: 200.0 mg/kg/injection, schedule: Q01DX001 (ip), vehicle: gum acacia) 93 % of control; (dose: 400.0 mg/kg/injection, schedule: Q01DX001 (ip), vehicle: gum acacia) 95 % of control.
Take `OB(O)c1ccc(B(O)O)cc1`: the T/C under setting [8] is 104 % of control; the T/C under setting [9] is 103 % of control; the T/C under setting [10] is 95 % of control; the T/C (dose: 400.0 mg/kg/injection, schedule: Q01DX009 (ip), vehicle: Klucel (hydroxypropylcellulose) (HPC)) is 104 % of control.
With `O=S(CCCl)CCCl`, the T/C runs as follows: (dose: 6.25 mg/kg/injection, schedule: Q01DX001 (ip), vehicle: saline) 117 % of control; (dose: 12.5 mg/kg/injection, schedule: Q01DX001 (ip), vehicle: saline) 152 % of control.
Regarding `CCCCCCCCCCCCCCCCCCCC[N+]1([O-])CCOCC1`, the T/C is, setting by setting: (dose: 3.12 mg/kg/injection, schedule: Q01DX009 (ip), vehicle: saline) 101 % of control; (dose: 6.25 mg/kg/injection, schedule: Q01DX009 (ip), vehicle: saline) 87 % of control; (dose: 12.5 mg/kg/injection, schedule: Q01DX009 (ip), vehicle: saline) 87 % of control and 94 % of control; (dose: 25.0 mg/kg/injection, schedule: Q01DX009 (ip), vehicle: saline) 94 % of control; under setting [14], 90 % of control and 92 % of control.
Turning to `COc1ccc(Cl)c2c1[nH]c1nc3nc4cc(Cl)ccc4n3nc12`, the T/C is 90 % of control (dose: 12.5 mg/kg/injection, schedule: Q01DX005 (ip), vehicle: saline with Tween-80); 94 % of control (dose: 25.0 mg/kg/injection, schedule: Q01DX005 (ip), vehicle: saline with Tween-80); 101 % of control and 105 % of control (dose: 50.0 mg/kg/injection, schedule: Q01DX005 (ip), vehicle: saline with Tween-80); 105 % of control (dose: 100.0 mg/kg/injection, schedule: Q01DX005 (ip), vehicle: saline with Tween-80); 111 % of control (dose: 200.0 mg/kg/injection, schedule: Q01DX005 (ip), vehicle: saline with Tween-80).
With `COC(=O)c1cc(NC(=O)O/N=C/c2cccnc2)cc(C(=O)OC)c1`, the T/C under setting [14] was 103 % of control and the T/C under setting [7] was 91 % of control.
